# The source made the active and inactive calls.
# Tests used:
# [1] = target: Genome polyprotein (dengue virus type 2, UniProt P29990); assay: Dengue-2 NS5 methyltransferase inhibitors, primary screen, biochemical, confirmation dose response (AID 588689); format: functional
# [2] = test system: Vero; assay: Vero cell cytotoxicity, cytotoxicity control for flavivirus capping enzyme inhibitors (AID 588742); format: functional; conditions: Chlorocebus sabaeus
# [3] = target: Cytochrome P450 2C9 (Homo sapiens, UniProt P11712)
# [4] = test system: HEK293; assay: inhibitors of LMP1-driven NF-kB reporter, dose response, cell-based, HEK293, luciferase, cherry-pick (AID 588343); format: functional; conditions: Homo sapiens
# [5] = target: Cytochrome P450 2C19 (Homo sapiens, UniProt P33261); assay: Cytochrome panel assay with activity outcomes. Panel member name: p450-cyp2c19 Compounds with AC50 equal or less than 10 uM are considered active; format: functional; conditions: read-out: AC50
# [6] = target: Cytochrome P450 3A4 (Homo sapiens, UniProt P08684);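 note: CYP3A4 tested as one member of a cytochrome P450 panel screen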
# [7] = target: T1, Sentrin-specific protease 8 (Homo sapiens, UniProt Q96LD8); format: functional;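 note: luminescence read-out of SENP8 inhibition, dose-response confirmation following an ultra-high-throughput screen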
# T1 sequence (Q96LD8 whole entry): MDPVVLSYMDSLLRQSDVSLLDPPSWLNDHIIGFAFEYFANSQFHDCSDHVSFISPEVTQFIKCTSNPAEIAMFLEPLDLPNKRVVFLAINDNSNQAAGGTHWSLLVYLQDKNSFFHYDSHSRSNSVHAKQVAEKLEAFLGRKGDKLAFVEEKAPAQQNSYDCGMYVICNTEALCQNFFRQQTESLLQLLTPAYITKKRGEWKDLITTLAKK
# [8] = target: T2, Sentrin-specific protease 6 (Homo sapiens, UniProt Q9GZR1); format: functional;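 note: Luminescence-based dose-response confirmatory assay of SENP6 inhibition, following up an ultra-high-throughput screen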
# T2 sequence (Q9GZR1 whole entry): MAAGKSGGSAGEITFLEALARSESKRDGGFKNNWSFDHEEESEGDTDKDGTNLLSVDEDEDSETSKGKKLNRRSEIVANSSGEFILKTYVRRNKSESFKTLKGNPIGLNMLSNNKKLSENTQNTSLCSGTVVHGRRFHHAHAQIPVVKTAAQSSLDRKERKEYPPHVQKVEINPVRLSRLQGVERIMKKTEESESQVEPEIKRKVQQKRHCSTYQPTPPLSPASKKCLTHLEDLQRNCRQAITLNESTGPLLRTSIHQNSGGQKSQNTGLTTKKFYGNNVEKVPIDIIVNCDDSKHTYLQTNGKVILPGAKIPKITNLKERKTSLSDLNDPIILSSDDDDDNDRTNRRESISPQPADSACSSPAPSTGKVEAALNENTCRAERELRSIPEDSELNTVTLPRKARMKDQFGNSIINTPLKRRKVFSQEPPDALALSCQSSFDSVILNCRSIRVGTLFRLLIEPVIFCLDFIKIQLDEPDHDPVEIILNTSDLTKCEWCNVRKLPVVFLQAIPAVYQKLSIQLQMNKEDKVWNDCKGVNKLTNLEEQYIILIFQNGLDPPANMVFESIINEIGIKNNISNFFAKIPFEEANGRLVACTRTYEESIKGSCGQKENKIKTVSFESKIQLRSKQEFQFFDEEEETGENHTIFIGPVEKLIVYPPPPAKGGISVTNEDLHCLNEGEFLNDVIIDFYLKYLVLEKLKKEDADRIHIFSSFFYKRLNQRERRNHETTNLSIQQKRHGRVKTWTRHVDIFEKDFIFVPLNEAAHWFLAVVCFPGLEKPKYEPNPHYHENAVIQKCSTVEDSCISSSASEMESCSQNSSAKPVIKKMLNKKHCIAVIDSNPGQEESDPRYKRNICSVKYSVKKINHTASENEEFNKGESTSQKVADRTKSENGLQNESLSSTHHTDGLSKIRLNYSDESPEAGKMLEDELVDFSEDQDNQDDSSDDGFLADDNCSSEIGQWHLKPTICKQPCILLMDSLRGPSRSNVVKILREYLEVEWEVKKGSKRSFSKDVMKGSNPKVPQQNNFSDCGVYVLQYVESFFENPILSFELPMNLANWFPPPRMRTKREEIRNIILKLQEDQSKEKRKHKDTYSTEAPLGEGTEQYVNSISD
# [9] = target: T3, Sentrin-specific protease 7 (Homo sapiens, UniProt Q9BQF6); format: functional;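 note: Luminescence-based dose-response confirmation of ultra-high-throughput screening hits, measuring inhibition of SENP7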
# T3 sequence (Q9BQF6 whole entry): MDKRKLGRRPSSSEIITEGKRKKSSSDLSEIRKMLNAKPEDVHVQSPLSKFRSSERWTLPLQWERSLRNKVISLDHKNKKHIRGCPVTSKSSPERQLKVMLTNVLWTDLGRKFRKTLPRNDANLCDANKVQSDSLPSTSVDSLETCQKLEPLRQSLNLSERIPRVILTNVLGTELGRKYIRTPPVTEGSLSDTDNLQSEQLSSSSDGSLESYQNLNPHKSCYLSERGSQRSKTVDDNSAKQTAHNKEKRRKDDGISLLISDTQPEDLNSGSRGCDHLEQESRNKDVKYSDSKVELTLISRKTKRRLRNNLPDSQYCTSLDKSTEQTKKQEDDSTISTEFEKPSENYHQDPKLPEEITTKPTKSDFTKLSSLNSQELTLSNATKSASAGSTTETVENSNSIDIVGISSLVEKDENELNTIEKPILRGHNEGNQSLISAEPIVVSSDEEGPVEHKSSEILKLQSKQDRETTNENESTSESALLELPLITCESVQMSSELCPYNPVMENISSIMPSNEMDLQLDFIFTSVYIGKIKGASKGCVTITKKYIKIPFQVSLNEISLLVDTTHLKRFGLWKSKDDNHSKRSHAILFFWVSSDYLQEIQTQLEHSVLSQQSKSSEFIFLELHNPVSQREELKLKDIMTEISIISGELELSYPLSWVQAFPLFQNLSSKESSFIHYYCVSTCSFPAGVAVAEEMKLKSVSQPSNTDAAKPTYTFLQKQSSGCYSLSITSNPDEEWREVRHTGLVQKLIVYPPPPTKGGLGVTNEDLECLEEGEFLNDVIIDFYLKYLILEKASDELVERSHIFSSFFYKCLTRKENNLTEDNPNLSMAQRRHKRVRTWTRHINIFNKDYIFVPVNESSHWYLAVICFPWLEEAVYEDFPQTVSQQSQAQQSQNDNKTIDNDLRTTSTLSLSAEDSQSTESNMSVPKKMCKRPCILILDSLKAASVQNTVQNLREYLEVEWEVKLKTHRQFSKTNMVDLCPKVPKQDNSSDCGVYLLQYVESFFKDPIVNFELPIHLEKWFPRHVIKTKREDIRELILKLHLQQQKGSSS
# [10] = target: T4, Caspase-3 (Homo sapiens, UniProt P42574); format: functional;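 note: Dose-response selectivity test against caspase-3 for candidate inhibitors of sentrin-specific proteases (SENPs)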
# T4 sequence (P42574 whole entry): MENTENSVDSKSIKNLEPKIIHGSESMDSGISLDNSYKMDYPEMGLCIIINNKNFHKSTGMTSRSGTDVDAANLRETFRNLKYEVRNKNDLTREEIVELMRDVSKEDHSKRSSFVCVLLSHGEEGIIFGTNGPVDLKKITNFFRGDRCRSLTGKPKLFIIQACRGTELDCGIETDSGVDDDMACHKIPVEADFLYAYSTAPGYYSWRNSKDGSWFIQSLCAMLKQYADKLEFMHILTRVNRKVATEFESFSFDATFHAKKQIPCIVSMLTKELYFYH
# [11] = target: T5, Histone-lysine N-methyltransferase NSD2 (Homo sapiens, UniProt O96028); format: biochemical
# T5 sequence (O96028 whole entry): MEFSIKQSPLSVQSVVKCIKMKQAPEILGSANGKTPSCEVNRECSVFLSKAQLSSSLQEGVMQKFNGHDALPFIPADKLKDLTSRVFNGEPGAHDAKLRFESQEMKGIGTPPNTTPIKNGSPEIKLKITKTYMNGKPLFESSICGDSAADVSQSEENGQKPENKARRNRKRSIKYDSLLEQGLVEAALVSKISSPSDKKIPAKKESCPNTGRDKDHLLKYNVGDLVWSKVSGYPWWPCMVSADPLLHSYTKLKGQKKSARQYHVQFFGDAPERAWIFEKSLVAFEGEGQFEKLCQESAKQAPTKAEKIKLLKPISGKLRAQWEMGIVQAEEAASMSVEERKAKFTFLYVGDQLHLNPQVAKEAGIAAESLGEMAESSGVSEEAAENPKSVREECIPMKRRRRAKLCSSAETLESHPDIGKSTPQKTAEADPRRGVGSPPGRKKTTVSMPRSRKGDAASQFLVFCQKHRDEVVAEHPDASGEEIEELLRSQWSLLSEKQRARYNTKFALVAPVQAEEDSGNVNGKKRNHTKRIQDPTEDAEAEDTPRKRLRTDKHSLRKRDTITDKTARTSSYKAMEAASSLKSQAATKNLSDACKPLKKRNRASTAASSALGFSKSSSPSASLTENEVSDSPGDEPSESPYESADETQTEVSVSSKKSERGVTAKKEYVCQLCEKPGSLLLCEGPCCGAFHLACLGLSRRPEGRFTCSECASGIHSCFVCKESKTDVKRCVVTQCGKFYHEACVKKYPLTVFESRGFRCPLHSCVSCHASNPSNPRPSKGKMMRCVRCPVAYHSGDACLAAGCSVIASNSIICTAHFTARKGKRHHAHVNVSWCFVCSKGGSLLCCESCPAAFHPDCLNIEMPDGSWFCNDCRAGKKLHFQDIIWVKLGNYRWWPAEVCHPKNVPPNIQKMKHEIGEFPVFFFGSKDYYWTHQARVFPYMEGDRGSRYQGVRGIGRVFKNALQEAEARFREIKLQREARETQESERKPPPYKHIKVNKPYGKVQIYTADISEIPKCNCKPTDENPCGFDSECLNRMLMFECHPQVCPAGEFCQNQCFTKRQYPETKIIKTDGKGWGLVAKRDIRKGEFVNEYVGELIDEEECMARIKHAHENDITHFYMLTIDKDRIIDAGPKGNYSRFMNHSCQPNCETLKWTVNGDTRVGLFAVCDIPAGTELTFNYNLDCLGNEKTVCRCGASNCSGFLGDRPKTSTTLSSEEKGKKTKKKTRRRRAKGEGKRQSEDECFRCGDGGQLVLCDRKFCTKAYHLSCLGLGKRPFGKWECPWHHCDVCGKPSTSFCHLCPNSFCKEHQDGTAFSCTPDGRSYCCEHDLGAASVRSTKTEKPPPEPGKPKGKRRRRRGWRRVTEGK
# [12] = Luminescence Cell-Based Dose Response HTS to Identify Inhibitors of 5'UTR Stem-Loop Driven Prion Protein mRNA Translation in H4 Neuroglioblastoma Cells. [Related pubchem assays: 1827 (Project Summary), 1813 (Primary HTS)]; format: functional
# [13] = inhibitors of firefly luciferase expression or activity, dose response, H4 neuroglioma cells, luminescence (AID 1990); format: functional, cell-based
# [14] = test system: Streptococcus sp. 'group A'; assay: growth inhibition of control SK(-) GAS strain, dose response, counter-screen for streptokinase expression inhibitor project, luminescence, kanamycin, BacTiterGlo, confirmation (AID 1900); format: functional, organism-based
# [15] = test system: Vero; assay: cells; format: functional; conditions: Chlorocebus sabaeus
# [16] = test system: Streptococcus; assay: Group A Streptococcus viability loss, dose response, counter-screen for streptokinase expression inhibitor project, luminescence, BacTiterGlo (AID 1915); format: functional, organism-based;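 note: potency for reduction of bacterial viability or growth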
# [17] = target: T6, Cytochrome P450 1A2 (Homo sapiens, UniProt P05177);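 note: PubChem cytochrome P450 panel assay, CYP1A2 panel member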
# T6 sequence (P05177 whole entry): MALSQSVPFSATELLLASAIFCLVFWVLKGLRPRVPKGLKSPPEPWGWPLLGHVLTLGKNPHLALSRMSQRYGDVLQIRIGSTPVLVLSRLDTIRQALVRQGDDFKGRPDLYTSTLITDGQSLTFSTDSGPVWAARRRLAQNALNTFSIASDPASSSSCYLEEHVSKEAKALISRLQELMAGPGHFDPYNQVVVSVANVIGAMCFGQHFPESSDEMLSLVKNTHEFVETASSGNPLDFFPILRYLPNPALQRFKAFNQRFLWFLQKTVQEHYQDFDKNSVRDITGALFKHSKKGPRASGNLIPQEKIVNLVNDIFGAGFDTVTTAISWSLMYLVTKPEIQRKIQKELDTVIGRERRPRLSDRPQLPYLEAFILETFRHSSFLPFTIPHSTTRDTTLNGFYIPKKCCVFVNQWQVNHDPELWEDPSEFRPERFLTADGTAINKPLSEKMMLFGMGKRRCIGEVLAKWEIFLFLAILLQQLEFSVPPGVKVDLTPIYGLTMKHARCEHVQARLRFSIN
# Sequence of Genome polyprotein (P29990 2492-3391 limits assumed): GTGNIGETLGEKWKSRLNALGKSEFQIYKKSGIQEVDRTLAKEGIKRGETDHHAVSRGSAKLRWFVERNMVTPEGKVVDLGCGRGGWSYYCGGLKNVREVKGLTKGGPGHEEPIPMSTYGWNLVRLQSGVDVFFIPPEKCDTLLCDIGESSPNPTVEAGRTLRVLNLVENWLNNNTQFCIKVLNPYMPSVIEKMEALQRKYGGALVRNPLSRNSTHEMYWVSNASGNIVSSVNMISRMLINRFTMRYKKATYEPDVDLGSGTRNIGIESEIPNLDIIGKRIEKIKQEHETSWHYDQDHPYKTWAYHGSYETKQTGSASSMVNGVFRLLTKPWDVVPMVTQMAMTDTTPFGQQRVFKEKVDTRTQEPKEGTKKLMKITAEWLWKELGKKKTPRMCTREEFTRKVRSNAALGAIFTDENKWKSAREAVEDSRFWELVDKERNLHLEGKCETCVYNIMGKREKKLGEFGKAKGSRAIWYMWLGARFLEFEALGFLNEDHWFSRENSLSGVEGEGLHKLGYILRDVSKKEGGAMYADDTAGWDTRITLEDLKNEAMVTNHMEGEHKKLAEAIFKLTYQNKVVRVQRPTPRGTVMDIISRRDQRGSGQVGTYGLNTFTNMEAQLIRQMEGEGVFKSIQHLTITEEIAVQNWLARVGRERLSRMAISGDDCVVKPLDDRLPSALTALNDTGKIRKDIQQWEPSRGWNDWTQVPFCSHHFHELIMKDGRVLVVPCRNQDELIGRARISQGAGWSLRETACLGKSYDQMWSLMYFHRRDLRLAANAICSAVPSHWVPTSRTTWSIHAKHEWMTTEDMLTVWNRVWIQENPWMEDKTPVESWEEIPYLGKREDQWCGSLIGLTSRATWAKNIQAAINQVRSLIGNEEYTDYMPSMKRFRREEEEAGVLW
# Sequence of Cytochrome P450 2C19 (P33261 whole entry): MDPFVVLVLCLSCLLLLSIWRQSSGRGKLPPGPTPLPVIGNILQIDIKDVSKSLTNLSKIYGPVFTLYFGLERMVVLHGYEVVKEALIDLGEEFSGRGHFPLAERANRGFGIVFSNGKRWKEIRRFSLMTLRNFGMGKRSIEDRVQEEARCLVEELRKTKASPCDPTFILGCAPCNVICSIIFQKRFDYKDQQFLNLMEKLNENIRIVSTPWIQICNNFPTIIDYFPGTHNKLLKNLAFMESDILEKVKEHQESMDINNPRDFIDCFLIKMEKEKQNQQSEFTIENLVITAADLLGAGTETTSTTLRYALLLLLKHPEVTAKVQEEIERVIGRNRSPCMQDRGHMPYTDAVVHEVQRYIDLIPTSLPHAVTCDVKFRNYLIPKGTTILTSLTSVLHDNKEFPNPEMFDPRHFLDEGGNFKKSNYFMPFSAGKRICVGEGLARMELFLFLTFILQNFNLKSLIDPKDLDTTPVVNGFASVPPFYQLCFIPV
# Sequence of Cytochrome P450 3A4 (P08684 whole entry): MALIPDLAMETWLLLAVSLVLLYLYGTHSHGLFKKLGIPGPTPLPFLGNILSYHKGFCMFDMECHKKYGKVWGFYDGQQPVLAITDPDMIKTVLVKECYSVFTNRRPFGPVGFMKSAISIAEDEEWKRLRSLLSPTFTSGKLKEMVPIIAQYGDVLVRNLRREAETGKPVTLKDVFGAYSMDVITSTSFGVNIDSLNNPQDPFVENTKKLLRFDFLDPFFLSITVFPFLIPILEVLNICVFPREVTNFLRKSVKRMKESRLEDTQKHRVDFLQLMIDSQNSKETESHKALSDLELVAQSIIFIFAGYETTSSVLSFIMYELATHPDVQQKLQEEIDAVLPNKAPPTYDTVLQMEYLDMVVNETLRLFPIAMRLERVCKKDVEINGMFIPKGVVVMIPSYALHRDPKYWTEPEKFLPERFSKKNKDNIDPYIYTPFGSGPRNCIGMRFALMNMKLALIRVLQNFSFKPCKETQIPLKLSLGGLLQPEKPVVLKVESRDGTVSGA
# Sequence of Cytochrome P450 2C9 (P11712 whole entry): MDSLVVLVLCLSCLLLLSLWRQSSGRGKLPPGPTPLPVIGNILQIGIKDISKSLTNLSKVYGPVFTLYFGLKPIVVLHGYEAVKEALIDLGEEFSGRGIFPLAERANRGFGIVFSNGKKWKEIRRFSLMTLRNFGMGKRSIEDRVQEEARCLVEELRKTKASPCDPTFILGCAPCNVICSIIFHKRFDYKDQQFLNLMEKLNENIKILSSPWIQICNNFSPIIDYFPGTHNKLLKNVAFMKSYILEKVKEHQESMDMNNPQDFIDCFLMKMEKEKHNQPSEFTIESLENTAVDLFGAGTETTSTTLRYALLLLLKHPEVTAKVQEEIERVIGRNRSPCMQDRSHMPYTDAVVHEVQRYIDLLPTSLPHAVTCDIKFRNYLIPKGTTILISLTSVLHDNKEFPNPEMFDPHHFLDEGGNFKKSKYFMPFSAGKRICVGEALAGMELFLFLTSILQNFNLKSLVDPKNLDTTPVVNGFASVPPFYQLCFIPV
compound,measurement,setting,value
NC(=S)N=Nc1c(O)cc(O)c2nc(O)ccc12,IC50,[1],20 µM (active)
same,CC50,[2],> 40 µM (active)
CCc1ccc(C(=O)COC(=O)c2cccc(N3C(=O)c4c(C)nc5ccccc5c4C3=O)c2)cc1,AC50,[3],3.16 µM (inconclusive)
same,AC50,[4],16.7 µM (active)
same,AC50,[5],7.08 µM (inconclusive)
same,AC50,[6],22.4 µM (inconclusive)
COc1ccc(NC(=O)c2ccc(OCC3CCCO3)cc2)cc1Cl (centres undefined),IC50,[7],> 100 µM (inactive)
same,IC50,[8],> 100 µM (inactive)
same,IC50,[9],5.56 µM (active)
same,IC50,[10],15.6 µM (active)
CC(=O)Nc1ccc(C=NNc2nnc(NN=Cc3ccc(NC(C)=O)cc3)c3ccccc23)cc1,AC50,[4],0.932 µM (active)
Cc1ccc(S(=O)(=O)/N=C2\C=C(NS(=O)(=O)c3ccccc3)C(=O)c3ccccc32)cc1,IC50,[1],35.8 µM (active)
same,AC50,[11],2.18 µM (active)
same,CC50,[2],> 40 µM (active)
NC(=O)c1ccccc1N/C=C/C(=O)c1cccs1,AC50,[4],22.5 µM (active)
O=C(Nc1nc2ccc(F)cc2s1)C1=COCCO1,AC50,[4],2.38 µM (active)
Cc1n[nH]c(O)c1C(c1c(C)n[nH]c1O)c1cn(Cc2ccc(Cl)c(Cl)c2)c2ccccc12,EC50,[12],0.26 µM (active)
same,EC50,[13],13.6 µM (active)
same,CC50,[2],5.47 µM (active)
same,EC50,[14],4.35 µM (active)
same,CC50,[15],10.1 µM (active)
same,EC50,[16],77.9 µM (active)
COc1ccc(N2Cc3ccccc3C2=O)cc1,AC50,[4],12.5 µM (active)
CCOc1ccc(/N=C/c2c(O)oc3ccccc3c2=O)cc1,IC50,[7],> 100 µM (inactive)
same,IC50,[8],26.2 µM (active)
same,IC50,[9],6.32 µM (active)
same,IC50,[10],32.8 µM (active)
Cc1sc2c(c1C)C(c1ccc(C(C)(C)C)cc1)=NCC(=O)N2CC(=O)Nc1nccs1,CC50,[2],> 40 µM (active)
same,AC50,[17],22.4 µM (inconclusive)

# Reference: ChEMBL document CHEMBL1201862, “PubChem BioAssay data set” (2004)
